The assay deals with alpha-glucosidase from Saccharomyces cerevisiae (Baker's yeast) (Saccharomyces cerevisiae, UniProt P53341). The experiment in a line: In vitro α-glucosidase inhibitory activity. It counts as biochemical.
alpha-glucosidase from Saccharomyces cerevisiae (Baker's yeast), sequence (P53341 whole entry): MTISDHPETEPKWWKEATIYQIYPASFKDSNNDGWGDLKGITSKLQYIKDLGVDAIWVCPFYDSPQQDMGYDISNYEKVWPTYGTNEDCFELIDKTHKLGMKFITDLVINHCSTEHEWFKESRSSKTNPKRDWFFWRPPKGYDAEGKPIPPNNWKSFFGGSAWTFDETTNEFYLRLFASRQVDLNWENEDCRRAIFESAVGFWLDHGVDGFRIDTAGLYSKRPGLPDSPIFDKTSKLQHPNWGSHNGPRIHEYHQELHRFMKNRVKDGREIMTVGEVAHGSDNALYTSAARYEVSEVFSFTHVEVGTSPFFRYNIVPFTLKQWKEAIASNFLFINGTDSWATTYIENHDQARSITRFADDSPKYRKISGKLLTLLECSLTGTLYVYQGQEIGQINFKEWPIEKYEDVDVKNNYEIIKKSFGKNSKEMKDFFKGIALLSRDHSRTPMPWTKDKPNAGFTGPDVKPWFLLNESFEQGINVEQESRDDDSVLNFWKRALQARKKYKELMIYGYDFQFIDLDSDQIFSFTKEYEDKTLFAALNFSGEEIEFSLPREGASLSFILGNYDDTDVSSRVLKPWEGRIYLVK
Turning to `CCCCCCSc1nc2ccccc2n1CC(=O)NN1C(=O)CSC1c1ccc([N+](=O)[O-])cc1` (stereo not drawn) [Compound 5, 2-[2-(Hexylthio)-1H-benzo[d]imidazole-1-yl]-N-[2-(4-nitrophenyl)-4-oxothiazolidin-3-yl]acetamide], the concentration for half-maximal inhibition (IC50) (commonly the point on the concentration scale where inhibition reaches its midpoint) turned out to be 5.22 ± 0.14 µM.

As for `CCCCCCSc1nc2ccccc2n1CC(=O)NN1C(=O)CSC1c1ccc(C=O)cc1` (stereo not drawn) [Compound 8, 2-[2-(Hexylthio)-1H-benzo[d]imidazole-1-yl]-N-[2-(4-formylphenyl)-4-oxothiazolidin-3-yl]acetamide], the concentration for half-maximal inhibition (IC50) was 5.69 ± 0.1 µM.

As for `CCCCCCSc1nc2ccccc2n1CC(=O)NN1C(=O)CSC1c1cccc(OC)c1O` (stereo not drawn) [Compound 11, 2-[2-(Hexylthio)-1H-benzo[d]imidazole-1-yl]-N-[-2-(2-hydroxy-3-methoxyphenyl)-4-oxothiazolidin-3-yl]acetamide], 24.1 ± 0.3 µM corresponded to half-maximal inhibition (IC50).

Turning to `CCCCCCSc1nc2ccccc2n1CC(=O)NN1C(=O)CSC1c1ccc(Cl)cc1Cl` (stereo not drawn) [Compound 12, 2-[2-(Hexylthio)-1H-benzo[d]imidazole-1-yl]-N-[2-(2,4-dichlorophenyl)-4-oxothiazolidin-3-yl]acetamide], the IC50 is 33.4 ± 0.38 µM.

In the case of `CCCCCCSc1nc2ccccc2n1CC(=O)NN1C(=O)CSC1c1ccc(O)c(OC)c1` (stereo not drawn) [Compound 14, 2-[2-(Hexylthio)-1H-benzo[d]imidazole-1-yl]-N-[2-(4-hydroxy-3-methoxyphenyl)-4-oxothiazolidin-3-yl]acetamide], 10.2 ± 0.12 µM corresponded to half-maximal inhibition (IC50). This IC50 is about 3.3-fold lower than that of the compound before.

For the compound `CCCCCCSc1nc2ccccc2n1CC(=O)NN1C(=O)CSC1c1ccccc1OC` (stereo not drawn) [Compound 15, 2-[2-(Hexylthio)-1H-benzo[d]imidazole-1-yl]-N-[2-(2-methoxyphenyl)-4-oxothiazolidin-3-yl]acetamide], half-maximal inhibition (IC50) was put at 89.28 ± 0.52 µM.

For `CCCCCCSc1nc2ccccc2n1CC(=O)NN1C(=O)CSC1c1ccc(OC)cc1` (stereo not drawn) [Compound 17, 2-[2-(Hexylthio)-1H-benzo[d]imidazole-1-yl]-N-[2-(4-methoxyphenyl)-4-oxothiazolidin-3-yl]acetamide], the 50% inhibitory concentration (IC50) worked out at 63.68 ± 0.52 µM. This IC50 and that of the compound before are within 1.5-fold of each other.

Compound `CCCCCCSc1nc2ccccc2n1CC(=O)NN1C(=O)CSC1c1ccc(C)o1` (stereo not drawn) [Compound 19, 2-[2-(Hexylthio)-1H-benzo[d]imidazole-1-yl]-N-[2-(5-methylfuran-2-yl)-4-oxothiazolidin-3-yl]acetamide] returned an IC50 of 39.06 ± 0.27 µM. This IC50 lies about 1.6-fold lower than the previous one.

`CCCCCCSc1nc2ccccc2n1CC(=O)NN1C(=O)CSC1c1cccs1` (stereo not drawn) [Compound 21, 2-[2-(Hexylthio)-1H-benzo[d]imidazole-1-yl]-N-[4-oxo-2-(thiophen-2-yl)-thiazolidin-3-yl]acetamide] had an IC50 of 54.4 ± 0.65 µM.

As for `CCCCCCSc1nc2ccccc2n1CC(=O)NN1C(=O)CSC1c1ccc2ccccc2c1` (stereo not drawn) [Compound 22, 2-[2-(Hexylthio)-1H-benzo[d]imidazole-1-yl]-N-[2-(naphthalen-2-yl)-4-oxothiazolidin-3-yl]acetamide], inhibition was half-maximal at 41 ± 0.36 µM (IC50).

`CCCCCCSc1nc2ccccc2n1CC(=O)NN1C(=O)CSC1c1ccc(F)cc1` (stereo not drawn) [Compound 23, 2-[2-(Hexylthio)-1H-benzo[d]imidazole-1-yl]-N-[2-(4-fluorophenyl)-4-oxothiazolidin-3-yl]acetamide] had an IC50 of 26.38 ± 0.18 µM.

Compound `CCCCCCSc1nc2ccccc2n1CC(=O)NN1C(=O)CSC1c1ccc(C)cc1` (stereo not drawn) [Compound 24, 2-[2-(Hexylthio)-1H-benzo[d]imidazole-1-yl)-N-[4-oxo-2-(p-tolyl)thiazolidin-3-yl]acetamide] registered a half-inhibitory concentration (IC50) of 23.7 ± 0.25 µM.

For the origin of these results see PMC9386811 (ACS Omega, 2022).
